Measured values taken from US20110275807A1, “Application of Evodiamine in preparing medicaments for Alzheimer's disease” (Institute of Laboratory Animal Science, Chinese Academy of …, priority 2010, published 2011).

Legend:
Assay type in all cases: in vivo
[1] = system: APPswe/PSΔE9 transgenic model of Alzheimer's disease; test: Morris water-maze test in Alzheimer's disease mice model; settings: 100 mg/kg body weight/day in diet for 3 months; compared with the model group
Protocol: The evodiamine treatment group was administrated in the standard diet plus evodiamine in a dose of 100 mg/kg body weight/day for 3 months. The model group received a standard diet as the placebo control. After a three-month continuous administration, the Morris water-maze tests were performed to test the effect of evodiamine on improvement of learning and memory abilities of the Alzheimer's disease mice model.

[2] = system: IL-Iβ; test: ELISA of IL-Iβ in brain tissues of Alzheimer's disease model mice; settings: 100 mg/kg body weight/day in diet for 3 months, compared with the model group
Protocol: (§1) The evodiamine treatment group was administrated in the standard diet plus evodiamine in a dose of 100 mg/kg body weight/day for 3 months. The model group received a standard diet as the placebo control.

[3] = system: IL-6; test: ELISA of IL-6 in brain tissues of Alzheimer's disease model mice; settings: 100 mg/kg body weight/day in diet for 3 months, compared with the model group
Protocol: as §1

[4] = system: TNF-α; test: ELISA of TNF-α in brain tissues of Alzheimer's disease model mice; settings: 100 mg/kg body weight/day in diet for 3 months, compared with the model group
Protocol: as §1

[5] = system: cyclaoxygenase-2 (COX-2); test: Western Blotting of COX-2 expression in brain tissue of Alzheimer's disease model mice; settings: 100 mg/kg body weight/day in diet for 3 months, compared with the model group
Protocol: as §1, with “control. […] The inflammation is one of main reasons resulting in the pathological development of Alzheimer's disease, so Evodiamine can treat Alzheimer's disease.” for “control.”

Evodiamine
learning and memory abilities (Morris water-maze) [1]: significantly improved
IL-Iβ in the brain tissues [2]: significantly decreased
IL-6 in the brain tissues [3]: significantly decreased
TNF-α in the brain tissues [4]: significantly decreased
expression of the cyclaoxygenase-2 (COX-2) in the brain tissue [5]: reduced
